{"source": "paper PMC11898701", "about": "“Evaluating Therapeutic Efficacy of the Vascular Disrupting Agent OXi8007 Against Kidney Cancer in Mice” (Cancers, 2025)", "key": {"[1]": {"system": "subcutaneous Renca tumors", "parameters": "method as in PMID 33954115", "conditions": "10 mg/kg, day 14; cited from earlier work"}, "[2]": {"system": "orthotopic Renca-luc tumors", "assay": "Long-term therapy with OXi8007 and/or cabozantinib", "format": "in vivo, mouse", "description": "(§1) OXi8007, synthesized by the Pinney Laboratory using published procedures, was dissolved in saline, verified to be in the pH range 7.3 to 7.5, and dosed at 250 mg/kg (IP). Cabozantinib (in PEG400 and ultrapure H2O (Milli-Q)) was administered at 3 mg/kg by oral gavage. Anti-PD-1 (10 mg/kg, Bio X Cell, Lebanon, NH, USA) and anti-CTLA-4 (5 mg/kg, Bio X Cell, Lebanon, NH) solutions were administered (IP) on the day before OXi8007 […].\nWe evaluated the longitudinal effects of OXi8007 alone and in combination with drugs currently favored for treating kidney cancer. For Renca-luc tumor-bearing mice, BLI was performed at least once a week to estimate tumor size, and mice were weighed weekly to adjust the dose as needed. Two treatment cohorts examined syngeneic orthotopic Renca-luc tumors in male BALB/c mice. Treatment started when the tumors reached about 1 × 10^6 photons/s peak total flux on BLI. The first cohort examined OXi8007 with cabozantinib. Mice were divided into four groups. Mice were assigned to groups as soon as there were sufficient to add the same numbers of animals to each group. The specific assignment was defined using the random number function in Excel. […] The second cohort was treated with CKIs and OXi8007 using four groups: Group 5 (OXi8007 + anti-PD-1 (10 mg/kg) + anti-CTLA-4 (5 mg/kg); n = 4), Group 6 (saline + anti-PD-1+ anti-CTLA-4; n = 3), Group 7 (saline + anti-PD-1; n = 3), and Group 8 (saline + anti-CTLA-4; n = 4). CKI antibodies were administered thrice weekly (M, W, F) for the first two weeks after the first treatment with OXi8007, which was administered twice weekly. […] Initial tumor growth was confirmed by palpation, and the mice were assigned to groups such that the first mouse with a confirmed tumor was assigned to Group 5, next to Group 6, etc., ensuring that all groups had both faster- and slower-growing tumors. […] Tumor size (BLI signal) and mouse body weights were compared using an ANOVA and multiple comparisons at a significance level of p < 0.05. Kaplan–Meier survival curves were compared using a non-parametric log-rank test using SAS software (SAS Institute Inc., SAS Viya for learners 4, Cary, NC, USA)."}, "[3]": {"system": "orthotopic XP258 human tumor xenografts", "assay": "Long-term therapy of XP258 human tumor xenografts", "format": "in vivo, mouse", "conditions": "XP258 in NOD/SCID mice; OXi8007 250 mg/kg IP twice weekly, cabozantinib 3 mg/kg oral daily", "text": "The animal procedures were approved by the UT Southwestern Medical Center Institutional Animal Care and Use Committee under APNs 2017-102152 and 2018-102344-CORE. Renca-luc orthotopic tumors were induced by inserting tumor tissue (~1 mm^3) harvested from a donor mouse into the right kidney of syngeneic BALB/c mice (age 8 weeks, male and female; Envigo, Indianapolis, IN, USA), as described previously. Orthotopic XP258 tumors (derived from a patient with pT3aN0M1 clear cell RCC) were obtained from the UT Southwestern Kidney Cancer SPORE [53, 54] and maintained by serial passage. Tumors were induced by inserting tumor tissues from a donor tumor into the left kidney capsule of female NOD/SCID mice (Envigo).\nas §1\nWe evaluated the longitudinal effects of OXi8007 alone and in combination with drugs currently favored for treating kidney cancer. For Renca-luc tumor-bearing mice, BLI was performed at least once a week to estimate tumor size, and mice were weighed weekly to adjust the dose as needed. Two treatment cohorts examined syngeneic orthotopic Renca-luc tumors in male BALB/c mice. Treatment started when the tumors reached about 1 × 10^6 photons/s peak total flux on BLI. The first cohort examined OXi8007 with cabozantinib. Mice were divided into four groups. Mice were assigned to groups as soon as there were sufficient to add the same numbers of animals to each group. The specific assignment was defined using the random number function in Excel. As such, each group included both faster- and slower-growing tumors. […]"}}, "data": [{"smiles": "COc1cc2nccc(Oc3ccc(NC(=O)C4(C(=O)Nc5ccc(F)cc5)CC4)cc3)c2cc1OC", "note": "[cabozantinib, reference compound]", "values": [{"measurement": "Tumor size reduction", "setting": "[1]", "result": 50, "unit": "%"}, {"measurement": "Body weight versus untreated control mice", "setting": "[2]; Renca-luc BALB/c mice, over course of treatment", "result": "significant weight loss"}, {"measurement": "Tumor growth delay (BLI)", "setting": "[2]; Renca-luc, versus control", "result": "significant tumor growth delay"}, {"measurement": "Median survival time", "setting": "[2]; Renca-luc, OXi8007 250 mg/kg IP twice weekly, cabozantinib 3 mg/kg oral daily", "result": 64, "unit": "days"}, {"measurement": "Survival versus controls", "setting": "[3]", "result": "significantly enhanced survival"}]}]}
